As a reminder, the melting point is the temperature of the solid-liquid transition. Turning to `O=C(N[C@H]1CC(=O)N(c2cc(Cc3n[nH]c(=O)c4ccccc34)ccc2F)C1=O)OCc1ccccc1` [Example 35, (S)-3-benzyloxycarbonylamino-1-[2-fluoro-5-(4-oxo-3,4-dihydrophthalazin-1-ylmethyl)phenyl]pyrrolidine-2,5-dione], the melting point is 121 to 127 °C.
In turn, `CCC/C=C/CC1CC(=O)N(c2cc(Cc3n[nH]c(=O)c4ccccc34)ccc2F)C1=O` (stereo not shown) [Example 29, 1-[2-fluoro-5-(4-oxo-3,4-dihydrophthalazin-1-ylmethyl)phenyl]-3-hex-2-enylpyrrolidine-2,5-dione] gave a melting point of 146 to 149 °C.
In turn, `CCCCC/C=C/CC1CC(=O)N(c2cc(Cc3n[nH]c(=O)c4ccccc34)ccc2F)C1=O` (stereo not shown) [Example 28, 1-[2-fluoro-5-(4-oxo-3,4-dihydrophthalazin-1-ylmethyl)phenyl]-3-oct-2-enylpyrrolidine-2,5-dione] gave a melting point of 138 to 141 °C.
Compound `O=C1CC2(CCCC2)C(=O)N1c1cc(Cc2n[nH]c(=O)c3ccccc23)ccc1F` [Example 32, 2-[2-fluoro-5-(4-oxo-3,4-dihydrophthalazin-1-ylmethyl)phenyl]-2-azaspiro[4.4]nonane-1,3-dione] showed a melting point of 215 to 220 °C.
The value for `O=C1CC(c2ccccc2)C(=O)N1c1cc(Cc2n[nH]c(=O)c3ccccc23)ccc1Cl` (stereo not shown) [Example 39, 1-[2-chloro-5-(4-oxo-3,4-dihydrophalazin-1-ylmethyl)phenyl]-3-phenylpyrrolidine-2,5-dione] was 131 to 135 °C; that for `CCCCCC/C=C/CC1CC(=O)N(c2cc(Cc3n[nH]c(=O)c4ccccc34)ccc2F)C1=O` (stereo not shown) [Example 30, 1-[2-Fluoro-5-(4-oxo-3,4-dihydrophthalazin-1-ylmethyl)phenyl]-3-non-2-enylpyrrolidine-2,5-dione] was 146 to 149 °C; that for `O=C1C2CC2C(=O)N1c1cc(Cc2n[nH]c(=O)c3ccccc23)ccc1Cl` (stereo not shown) [Example 41, 3-[2-chloro-5-(4-oxo-3,4-dihydrophthalazin-1-ylmethyl)phenyl]-3-azabicyclo[3.1.0]hexane-2,4-dione] was 229 to 230 °C.

(Values after patent US7196085B2, “Phthalazinone derivatives” (KuDOS Pharmaceuticals Limited, priority 2002, dated 2007).)
